The text below walks through data of paper PMC11611271, “Rapid prediction of key residues for foldability by machine learning model enables the design of highly functional libraries with hyperstable constrained peptide scaffolds” (PLOS Computational Biology, 2024).

Where a SMILES comes first, the peptide text is derived from it. Bridges are numbered along the chain shown (N, C = ends).

One experiment has as its system VEGF. The experiment can be described thus: phage spot ELISA on VEGF. Format: binding. The note with it: for S/N: phage spot ELISA signal/noise; for S/N / ELISA: S3 Table sheet VEGF; for ELISA: phage spot ELISA signal. From the text:
(§1) To determine the performance of the libraries for ligand discovery we chose a panel of eight protein targets, which have no structural homology and a wide mass range (Fig 7C). We screened these eight targets with solution panning strategy and two additional plate panning for CD8α/β and CD28, thus ten panning campaigns in total. We consider clones showing spot phage ELISA signal > 0.3 and signal/noise ratio > 2 as positive hits. At least one binding hit was discovered for nine out of the ten panning campaigns, surpassing the success rate of the best DCP scaffolds reported previously. We also obtained the NGS data for these screening and the ranking of clones for their enrichment along the rounds of screening was analyzed and considered the top-ranking clones as potential hits. Based on their sequence diversity we selected 16 potential hits spanning five protein targets for peptide synthesis in their linear form. Seven of these are hits with positive phage ELISA signal and nine were selected based on NGS ranking without spot ELISA available. Subsequently, we conducted in vitro folding experiments on these peptides in various buffers. We observed a strong propensity for spontaneous folding regardless of the buffer condition. All HCP hits tested successfully folded into three-disulfide-containing product within two days in a universal buffer system (PBS, pH 7.4, 50% DMSO) without the need for a redox pair, as shown in Fig 8A. The binding of these folded peptides to their respective target proteins was confirmed using SPR (Table 4 and S1 Data) and binding kinetics are exemplified by the high-affinity peptide 5ji4-CRD7-2 (see Fig 8B). Among seven selected ELISA-positive hits, all of them were successfully synthesized and in vitro folded with three disulfide bonds and five were proven to be validated binders by SPR (Table 4). Nine peptides selected from the NGS ranking were synthesized and folded with the expected number of disulfide bonds and five of them bound to their target with affinities in the μM range as determined by SPR (Table 4). In general, binding affinities for these SPR-validated initial hits are weak, with Kd values in the micromolar range and fast on- and off-rates. There are two exceptions with binding affinities in the nanomolar range.
(§2) The 5ji4 libraries were constructed following the Kunkel mutagenesis method and the solution panning protocol was followed as previously described. After four to five rounds of binding selection, while eluted pool was subjected to NGS analysis, individual phage clones were also picked and analyzed with phage spot ELISA. Positive clones were subjected to SANGER sequencing.
For orientation: In an ELISA, binding on a coated surface is turned into a signal by an enzyme label.

The test system of a further experiment is CD28. The experiment can be described thus: phage spot ELISA on CD28. The note with it: S3 Table sheet CD28-1 (panning campaign 1); for S/N: phage spot ELISA signal/noise; for ELISA: phage spot ELISA signal. The format is binding.
From the text: as §1, §2

In the experiment on VEGF (phage spot ELISA of the clone, positive hit: signal > 0.3 and signal/noise > 2), `CC(C)C[C@@H]1NC(=O)[C@H](CCCNC(=N)N)NC(=O)[C@H](CCCCN)NC(=O)[C@@H]2CSSC[C@H](NC(=O)[C@H](CCC(=O)O)NC(=O)[C@@H](NC(=O)[C@@H]3CCCN3)CSSC[C@@H](C(=O)NCC(=O)O)NC(=O)[C@H](Cc3c[nH]cn3)NC(=O)[C@H](C(C)C)NC(=O)[C@H](CCCNC(=N)N)NC(=O)[C@@H]3CSSC[C@H](NC1=O)C(=O)N[C@@H](Cc1c[nH]c4ccccc14)C(=O)NCC(=O)N[C@@H](Cc1ccccc1)C(=O)NCC(=O)N[C@@H](CCC(N)=O)C(=O)N[C@@H](CO)C(=O)N[C@@H](CC(=O)O)C(=O)N3)C(=O)N[C@@H](CC(=O)O)C(=O)N[C@@H](C(C)C)C(=O)N[C@@H](CC(N)=O)C(=O)N[C@@H](C(C)C)C(=O)N[C@@H](CCC(=O)O)C(=O)N[C@@H]([C@@H](C)O)C(=O)N[C@@H](Cc1ccc(O)cc1)C(=O)N[C@@H]([C@@H](C)O)C(=O)N[C@@H](C(C)C)C(=O)N[C@@H](CO)C(=O)N[C@@H](CO)C(=O)N[C@@H](CO)C(=O)N[C@@H](CCC(=O)O)C(=O)N[C@@H](CCC(=O)O)C(=O)N2` [5ji4-VEGF-3] (H-PCECDVNVETYTVSSSEECKRLCWGFGQSDCRVHCG-OH; disulfide 2-35, 4-19, 23-31) had an ELISA signal of 3.07. Besides, the ELISA s/n in the experiment with VEGF (phage spot ELISA signal/noise ratio) worked out at 32.18.
As for “PCECYFSNTMVGHSSSEECERLCRNLGVTNCRVHCG [VEGF clone 5, phage clone, 5JI4 library, VEGF panning]”, in the experiment on VEGF, the S/N came to 40.6 and the ELISA was 4.23.
On the same counts, the results for “PCECYMSNVNVGESSSEECERLCRKLGVTNCRVHCG [VEGF clone 22, phage clone, 5JI4 library, VEGF panning]” are 29.6607 and 3.322.
On the same counts, the results for “PCECYLPKVMVGFSSSEECERLCRNLGVTNCRVHCG [VEGF clone 10, phage clone, 5JI4 library, VEGF panning]” are 12.4652 and 3.939.
On the same counts, the results for “PCECLMYGHHVGSASSEECERLCRKLGVTNCRVHCG [VEGF clone 19, phage clone, 5JI4 library, VEGF panning]” are 36.6559 and 3.409.
In the case of “PCECQFYGTMVGWSSSEECERLCRKLGVTNCRVHCG [VEGF clone 20, phage clone, 5JI4 library, VEGF panning]”, in the experiment on VEGF, the S/N came out at 37.3956 and the ELISA worked out at 3.403.
As to “PCECDHMQYFILYESSEECERLCRKLGVTNCRVHCG [CD28-1 clone 7, phage clone, 5JI4 library, CD28-1 panning]”, in the experiment with CD28, the S/N stood at 2.516 and the ELISA worked out at 0.234.
In the experiment with VEGF, “PCECYFQGVNVGESSSEECERLCRKLGVTNCRVHCG [VEGF clone 16, phage clone, 5JI4 library, VEGF panning]” gave a S/N of 40.618 and an ELISA of 3.615.
In the same order, the values of “PCECVVLDTVVGKASSEECERLCRKLGVTNCRVHCG [VEGF clone 17, phage clone, 5JI4 library, VEGF panning]” are 37.5957 and 3.534.
On the same counts, the results for “PCECFILGMAVGQSSSEECERLCRKLGVTNCRVHCG [VEGF clone 23, phage clone, 5JI4 library, VEGF panning]” are 29.8545 and 3.284.
Take “PCECQENTTFIIYSSSEECERLCRKLGVTNCRVHCG [CD28-1 clone 12, phage clone, 5JI4 library, CD28-1 panning]”: in the experiment with CD28, the S/N is on record as 1.979 and the ELISA was determined as 0.192.
Take “PCECWFYDALVGWTSSEECERLCRKLGVTNCRVHCG [VEGF clone 7, phage clone, 5JI4 library, VEGF panning]”: in the experiment on VEGF, the S/N amounted to 41.3 and the ELISA is reported as 4.13.
Regarding “PRECDEDNIWIIANSSEECERLCRKLGVTNCRVHCG [CD28-1 clone 9, phage clone, 5JI4 library, CD28-1 panning]”, in the experiment on CD28, the S/N is listed as 1.511 and the ELISA came to 0.213.
In the same order, the values of “PANAVIRTWIIFASSEECERLCRKLGVTNCRVHCG [CD28-1 clone 5, phage clone, 5JI4 library, CD28-1 panning]” are 3.189 and 0.3.
As to “PCECFMMEVKVGTGSSEECERLCRKLGVTNCRVHCG [VEGF clone 14, phage clone, 5JI4 library, VEGF panning]”, in the experiment with VEGF, the S/N is 42.5632 and the ELISA was determined as 3.703.
In the same order, the values of “PCECFMYDILVGLASSEECERLCRKLGVTNCRVHCG [VEGF clone 2, phage clone, 5JI4 library, VEGF panning]” are 30.9 and 6.00.
Turning to “RANAFWVVLVPDGGSSEECERLCRKLGVTNCRVHCG [CD28-1 clone 4, phage clone, 5JI4 library, CD28-1 panning]”, in the experiment on CD28, the S/N was found to be 2.932 and the ELISA was determined as 0.4.
In the experiment on VEGF, “PCECDVNVETYTVSSSEECKRLCWGFGQSDCRVHCG [VEGF clone 26, phage clone, 5JI4 library, VEGF panning]” gave a S/N of 30.2373 and an ELISA of 3.568.
For the compound “PCEYQTWRVVIPDASSEECERLCRKLGVTNCRVHCG [CD28-1 clone 3, phage clone, 5JI4 library, CD28-1 panning]”, in the experiment on CD28, the S/N is 4.407 and the ELISA worked out at 0.4.
In the experiment on VEGF, “PCECYFYDIVVGFSSSEECERLCRKLGVTNCRVHCG [VEGF clone 1, phage clone, 5JI4 library, VEGF panning]” gave a S/N of 58.3 and an ELISA of 6.00.
In the same order, the values of “PCECITKWSDWGFSSSEECERLCRKLGVTNCRVHCG [VEGF clone 24, phage clone, 5JI4 library, VEGF panning]” are 9.024 and 0.767.
On the same counts, the results for “PCECFFNAVKVGWSSSEECERLCRKLGVTNCRVHCG [VEGF clone 13, phage clone, 5JI4 library, VEGF panning]” are 35.8857 and 3.768.
In the experiment with VEGF, “PCECYFQXVKVGESSSEECERLCRKLGVTNCRVHCG [VEGF clone 6, phage clone, 5JI4 library, VEGF panning]” showed a S/N of 32.5 and an ELISA of 4.23.
In the experiment on VEGF, “PCECIXXDSFVGKSSSEECERLCRKLGVTNCRVHCG [VEGF clone 25, phage clone, 5JI4 library, VEGF panning]” had a S/N of 3.092 and an ELISA of 0.269.
Regarding “PCECMFHGVPVGFSSSEECERLCRKLGVTNCRVHCG [VEGF clone 8, phage clone, 5JI4 library, VEGF panning]”, in the experiment with VEGF, the S/N is given as 37.2 and the ELISA came to 4.06.
Consider “PCECWMYHTNVGHGSSEECERLCRKLGVTNCRVHCG [VEGF clone 21, phage clone, 5JI4 library, VEGF panning]”, for which, in the experiment with VEGF, the S/N turned out to be 29.9279 and the ELISA was found to be 3.322.
In the same order, the values of “PCECFMYGVYVGHSSSEACERLCRKLGVTNCRVHCG [VEGF clone 9, phage clone, 5JI4 library, VEGF panning]” are 39.95 and 3.995.
In the experiment on VEGF, “PCECHFXGVHVGRSSSEECERLCRKLGVTNCRVHCG [VEGF clone 12, phage clone, 5JI4 library, VEGF panning]” came in with a S/N of 15.0395 and an ELISA of 3.805.
In the same order, the values of “PCECYFETTHVGFASSEECERLCRKLGVTNCRVHCG [VEGF clone 18, phage clone, 5JI4 library, VEGF panning]” are 10.4498 and 3.438.
On the same counts, the results for “PCECYIYNTGAGWGSSEECARLCRKLGVTNCRVHCG [VEGF clone 15, phage clone, 5JI4 library, VEGF panning]” are 30.6033 and 3.703.
On the same counts, the results for “PCECIILNVVVGESSSEECERLCRKLGVTNCRVHCG [VEGF clone 4, phage clone, 5JI4 library, VEGF panning]” are 2.9 and 4.32.
In the experiment on VEGF, “PCECPRWWSHDGGYSSEECERLCRKLGVTNCRVHCG [VEGF clone 11, phage clone, 5JI4 library, VEGF panning]” registered a S/N of 38.9 and an ELISA of 3.89.
On the same counts, the results for “PCECLMYRVXVGHSSSEACERLCRKLGVTNCRVHCG [VEGF clone 3, phage clone, 5JI4 library, VEGF panning]” are 42.6 and 4.34.
